# Measured values: PubChem BioAssay (NCI)
#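 1) Cells in 96-well plates. 2) Compound, 48 h, 5 concentrations. 3) Linear interpolation between surrounding doses. 4) Unreached endpoint = highest concentration. TGI marks complete inhibition of growth.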
# Key:
# Experiment in all cases: growth of human tumour cells (NCI), 48 h
# SNB-19 CNS = system: SNB-19 CNS
# DMS 114 small cell lung = system: DMS 114 small cell lung
# RXF 393 renal = system: RXF 393 renal
# RPMI-8226 leukemia = system: RPMI-8226 leukemia
# KM20L2 colon = system: KM20L2 colon
# DLD-1 colon = system: DLD-1 colon
# SF-268 CNS = system: SF-268 CNS
# SNB-78 CNS = system: SNB-78 CNS
# M19-MEL melanoma = system: M19-MEL melanoma
# HOP-18 NSCLC = system: HOP-18 NSCLC
# DMS 273 small cell lung = system: DMS 273 small cell lung
# XF 498 CNS = system: XF 498 CNS
# TK-10 renal = system: TK-10 renal
# SR leukemia = system: SR leukemia
# MDA-MB-435 = system: MDA-MB-435
# PC-3 prostate = system: PC-3 prostate
SMILES,TGI (SNB-19 CNS),TGI (DMS 114 small cell lung),TGI (RXF 393 renal),TGI (RPMI-8226 leukemia),TGI (KM20L2 colon),TGI (DLD-1 colon),TGI (SF-268 CNS),TGI (SNB-78 CNS),TGI (M19-MEL melanoma),TGI (HOP-18 NSCLC),TGI (DMS 273 small cell lung),TGI (XF 498 CNS),TGI (TK-10 renal),TGI (SR leukemia),TGI (MDA-MB-435),TGI (PC-3 prostate)
O=C(CCN1CCOCC1)/C(=C/c1ccccc1)c1ccccc1,23.4 µM,12 µM,3.4 µM,8.05 µM,15.1 µM,4.04 µM,19 µM,21.3 µM,14.1 µM,30.6 µM,21.4 µM,19.1 µM,–,–,–,–
O=C(O)CCC(=O)OCN1C(=O)C2C3C=CC(C2C1=O)C1C2C(=O)N(COC(=O)CCC(=O)O)C(=O)C2C31 (stereo not drawn),> 100 µM,> 67.9 µM,> 100 µM,52.5 µM,> 100 µM,> 100 µM,> 100 µM,> 100 µM,> 100 µM,> 100 µM,> 58.2 µM,> 100 µM,> 100 µM,52.4 µM,–,–
N#CC1(C#N)C(C#N)(C#N)C1(C#N)C(N)=O,> 100 µM,–,> 100 µM,> 100 µM,–,–,> 100 µM,–,–,–,–,–,> 100 µM,> 100 µM,> 100 µM,> 100 µM
CCOC(=O)c1ccc(Nc2nc3ccccc3nc2-c2cccs2)cc1,> 100 µM,–,> 100 µM,> 100 µM,–,–,> 100 µM,–,–,–,–,–,58.5 µM,> 100 µM,> 100 µM,> 100 µM
COC(=O)[C@@H]1CS(=O)(=O)C(C(C)C)N1C(C)=O (stereo partly drawn),> 100 µM,–,> 100 µM,> 100 µM,–,–,> 100 µM,–,–,–,–,–,> 100 µM,> 100 µM,> 100 µM,> 100 µM
CCOC(=O)C1CC(C(=O)c2ccccc2)N2c3ccccc3-c3ccccc3C12 (stereo not drawn),> 100 µM,–,> 100 µM,40.8 µM,–,–,> 100 µM,–,–,–,–,–,> 100 µM,84.1 µM,> 100 µM,> 100 µM
CSC(=S)Nc1cc(C)cc(C)n1,> 31.6 µM,–,> 31.6 µM,> 31.6 µM,–,–,> 31.6 µM,–,–,–,–,–,> 31.6 µM,> 10 µM,> 31.6 µM,> 31.6 µM
COc1ccccc1-n1c(=O)n(C)c(=O)n1C(C)(C)C,> 100 µM,–,> 100 µM,> 100 µM,–,–,> 100 µM,–,–,–,–,–,> 100 µM,> 100 µM,> 100 µM,> 100 µM
N#CC(CCN1CCC(Nc2ccccc2)(c2nnnn2C2CCCCC2)CC1)(c1ccccc1)c1ccccc1,> 100 µM,–,> 100 µM,> 100 µM,–,–,> 100 µM,–,–,–,–,–,> 100 µM,> 100 µM,> 100 µM,> 100 µM
CCCCc1ccc(Nc2ncc3ncn(COCCO)c3n2)cc1,> 100 µM,–,86.6 µM,50 µM,–,–,> 100 µM,–,–,–,–,–,> 100 µM,52.5 µM,87.5 µM,> 100 µM
Fc1cccc(F)c1C1SCc2nc3cc(Cl)c(Cl)cc3n21 (stereo not drawn),> 100 µM,–,> 100 µM,> 100 µM,–,–,> 100 µM,–,–,–,–,–,> 100 µM,> 100 µM,> 100 µM,> 100 µM
COC(=O)C1=C(OC(=O)/C(=C/c2ccccc2)c2ccc(OC)cc2)C(C(=O)OC)[C@@]2(O)[C@@H](C(=O)OC)[C@H](C)C[C@@H]1[C@@H]2C(=O)OC (stereo partly drawn),> 100 µM,–,64.7 µM,> 100 µM,–,–,> 100 µM,–,–,–,–,–,> 100 µM,> 100 µM,> 100 µM,> 100 µM
Cc1cccc2c(N)c3cccc(C(=O)NCC[N+](C)(C)Cc4ccc([N+](=O)[O-])s4)c3nc12,60.2 µM,–,25.9 µM,34.1 µM,–,–,36.9 µM,–,–,–,–,–,> 100 µM,5.7 µM,> 63.9 µM,30.5 µM
O=c1[nH]c(=O)n(C2CC(O)C(CO)O2)cc1Oc1ccccc1 (stereo not drawn),> 100 µM,–,> 100 µM,> 100 µM,–,–,> 100 µM,–,–,–,–,–,> 100 µM,> 100 µM,> 100 µM,> 100 µM
CCOC(=O)/C(C(N)=O)=C(\O)C(=O)/C(Br)=C(\O)c1ccccc1,> 69.1 µM,–,29.6 µM,29.4 µM,–,–,39.5 µM,–,–,–,–,–,33.2 µM,12.1 µM,31.6 µM,31.7 µM
CN(Cc1cnc2nc(N)nc(N)c2n1)c1ccc(C(=O)NC23CC4CC(CC(C4)C2)C3)cc1,18.6 µM,–,40.4 µM,70.8 µM,–,–,22.7 µM,–,–,–,–,–,30.8 µM,> 100 µM,31.6 µM,19 µM
FC(F)(F)c1cc(N(C2c3ccccc3C=Cc3ccccc32)P(Cl)Cl)cc(C(F)(F)F)c1,56.8 µM,–,27.1 µM,51.2 µM,–,–,33.8 µM,–,–,–,–,–,> 100 µM,46.9 µM,64.9 µM,78.1 µM
COc1cc(/C=C2\CC/C(=C\c3cc(OC)c(O)c(OC)c3)C2=O)cc(OC)c1O,> 100 µM,–,3.74 µM,4.01 µM,–,–,36.5 µM,–,–,–,–,–,> 100 µM,> 100 µM,4.19 µM,19.7 µM
O[C@@H]1C=C[C@]23CCN(Cc4cc5c(cc42)OCO5)[C@@H]3C1,> 100 µM,–,> 100 µM,> 100 µM,–,–,> 100 µM,–,–,–,–,–,> 100 µM,> 100 µM,> 100 µM,> 100 µM
O=C(c1ccccc1)c1ccc2nc(-c3c(Cl)c(Cl)c(Cl)c(Cl)c3-c3nnc(-c4ccccc4)o3)[nH]c2c1,> 100 µM,–,47.1 µM,> 100 µM,–,–,> 100 µM,–,–,–,–,–,> 100 µM,50.2 µM,> 100 µM,> 100 µM
Cc1cn(C2CCC(CO)(CF)O2)c(=O)[nH]c1=O (stereo not drawn),> 100 µM,–,> 100 µM,> 100 µM,–,–,> 100 µM,–,–,–,–,–,> 100 µM,> 100 µM,> 100 µM,> 100 µM
